Measured values published in US10723726B2, “Solid forms of (Z)-4-(5-((3-benzyl-4-oxo-2-thioxothiazolidin-5-ylidene)methyl)furan-2-yl)benzoic acid” (GB006, INC., priority 2015, dated 2020).
Counter-ions that a name gives are not always drawn. Like-named read-outs stand apart in the source and are kept apart here. Blank lines part the entries; values can stand above or below the compound they belong to.

Legend:
[1] = in vivo
Experimental: (§1) In a second experiment, the dose solution was prepared in Tween-80 (0.02%) and 0.5% methyl cellulose in Milli-Q water. IP (2 mg/kg) and IV (1 mg/kg) dose solutions were prepared in a 5% DMSO and 95% PEG-200.
(§2) The PO (2 mg/kg) dose solution was prepared in Tween-80 (0.02%) and 0.5% methyl cellulose in Milli-Q water. The IV (1 mg/kg) dose solution was prepared in a solution of 5% DMSO and 95% PEG-200.
(§3) The routes of administration were namely PO (gavage), IP (bolus) and IV (bolus through tail vein). A total of four SD male rats were used aged between 5-6 weeks. The feeding regimen included 12 h fasting and the feed was provided 2 hrs after the dosage inoculation and water was provided ad libidum. The blood collection schedule for PO/IP was at 0.25, 0.5, 1, 2, 4, 8, 10 and 24 h, and for IV it was at 0.12, 0.25, 0.5, 1, 2, 4, 8 and 24 h. For PO dosage, tween-80 (0.02%) and 0.5% methyl cellulose prepared in milli-Q water were used as vehicles; for IP and IV dosage 5% DMSO and 95% PEG-200 were used as vehicles.
(§4) Stock solution (178 μg/mL) in methanol was further diluted using methanol: water (80:20, v/v) to obtain working solutions in the range of 10.4 to 20745 ng/mL.
(§5) 50 μL of sample was aliquoted in to pre-labeled vials. To it was added 200 μL of 10% tetrahydrofuran containing IS (100 ng/mL; tolbutamide) and mixed well, vortexed for 5 min followed by centrifugation for 5 min at 14000 rpm for at 4° C. Supernatant was separated and 5 μL of same was injected on LC-MS/MS.
(§6) Data Analysis: Individual concentration-time data were analyzed using WinNonlin (Version 5.3) by non-compartmental analysis (NCA) method.
(§7) The routes of administration were namely PO (gavage) and IV (bolus through tail vein). A total of four SD male rats were used aged between 5-6 weeks. The feeding regimen included 12 h fasting and the feed was provided 2 hrs after the dosage inoculation and water was provided ad libitum. The blood collection schedule for PO was at 0.25, 0.5, 1, 2, 4, 8, 10 and 24 h, and for IV it was at 0.12, 0.25, 0.5, 1, 2, 4, 8 and 24 h. For PO dosage, tween-80 (0.02%) and 0.5% methyl cellulose prepared in milli-Q water were used as vehicles; for IV dosage 10% DMSO and 90% PEG-200 were used as vehicles.

in vivo [2] = conditions: male, rat; for half-life: t1/2,ß
Experimental: as §1, §2, §3, §4, §5, §6, §7

in vivo [3] = conditions: male
Experimental: Test system: Healthy Beagle dog weighing 10-12 kg (age 10 months), males were used for the study. Crossover design was adopted for the experiments wherein 03 dogs were used in the study for oral and intravenous administration. The animals were housed stainless steel cage provided with a hopper to hold pellet feed and a separate water hopper. Temperature and humidity was maintained at 23±5° C. and 30-70%, respectively. The illumination was controlled to give a sequence of 12 h light and 12 h dark cycle. All the animals were adapted to the experimental conditions for at least 5 days prior to dosing. All animals were provided with Pedigree™ standard pellet feed, except for 10 to 12 h before treatment and 4 h after the drug administration. Water was provided ad libidum.
Formulation and drug administration: 251.02 mg of test item was transferred in to a clean mortar. Test item was ground uniformly using pestle. 1.235 ml of Tween 80 was added and the material was mixed. A small quantity of 0.5% (w/v) methylcellulose in water was added and the mixture was triturated. 0.5% methyl cellulose was added to make a final volume of 190 ml. Finally the above formulation was transferred to a pre-labeled beaker and sonicated for five minutes. Suspension was dosed under stirring conditions by placing on a magnetic stirrer.
The dose formulation of LA-1.choline was administered by oral gavage using a feeding gavage tube. The required volume of dose formulation (5 ml/kg body weight) was draw up into a graduated syringe. The dog was properly restrained with the help of another person so as to restrict movement. The feeding tube was inserted slowly in the mouth through the space between cheek and the teeth towards esophagus to the stomach. Proper placement of tube was confirmed by dipping the outside end of tube in a container with water and looking for air bubbles. Absence of air bubbles confirmed the location of tube in the stomach. The required dose volume of LA-1.choline suspension was slowly administered through the feeding tube. Air was pushed through at the end to ensure empting of the tube. The tube was slowly taken out and discarded.
Intravenous drug formulation: Accurately weighed 27.49 mg of test item was transferred in to the clean tube. A volume of 0.417 mL DMSO was added and mixed until the test dissolves completely. A volume 0.417 mL of Solutol:alcohol (1:1, v/v) was added and mixed, to this, 7.496 mL of normal saline was added and vortexed. Finally, the above formulation was used for dosing.
The required volume of dose formulation (0.2 ml/kg body weight) of LA-1.choline was drawn up into a graduated syringe. Air bubbles were removed from the syringe before dosing. The dog was restrained in the standing position. The upper portion of injection site of cephalic vein was compressed and the needle of the butterfly vein catheter sized 22G was slowly inserted in the vein. Once blood reached the end of the catheter tube, it was connected to the syringe. The dose formulation was immediately injected slowly. At the end of administration, approximately 0.5 mL of normal saline was injected via catheter to ensure the required dose volume was administrated. Last, the needle was removed.
Sample collection: Post-dosing ˜1.5 ml of blood sample from each dog for the following time points 0.25, 0.5, 1, 1.5, 2, 3, 5, 8, 10 and 24 h was collected from the jugular vein into K2EDTA containing pre-labeled vacutainer centrifuge tubes. Plasma was obtained by centrifuging blood samples at 2500 g for 10 min. under refrigeration (2-4° C.) within 0.5 h of sampling. The obtained plasma samples were transferred into pre-labeled microcentrifuge tubes (approximately ˜300 μl) and stored at or below −70±10° C. The sample labels include details such as study number, test item code and dose group and/or day of sampling, animal number, time point.
Extraction procedure: The plasma separated from the whole blood was used for bio-analysis.

[4] = male, Sprague Dawley, rat, ip, 2 mg/kg
[5] = male, Sprague-Dawley, rat, ip, 2 mg/kg
[6] = male, Sprague-Dawley, rat, iv, 1 mg/kg
[7] = male, Sprague-Dawley, rat, po, 2 mg/kg
[8] = Beagle, dog, iv, 0.5 mg/kg, Plasma concentration
[9] = Beagle, dog, po, 5 mg/kg, Mean conc.
[10] = Beagle, dog, po, 5 mg/kg, Plasma concentration
[11] = beagle, dog, iv, 0.5 mg/kg, Mean conc.
[12] = beagle, dog, iv, 0.5 mg/kg, Plasma concentration
[13] = beagle, dog, po, 5 mg/kg, Plasma concentration

Rat Cl ([1]; male, Sprague Dawley, iv, 1 mg/kg): 17.6 mL/min/kg
Vss ([1]; male, Sprague Dawley, rat): 0.73 L/kg
MRT [1, 4]: 1.02 h
Rat Cl ([1]; male, Sprague-Dawley): 18 mL/min/kg
Rat Cl ([1]; male, Sprague-Dawley, iv, 1 mg/kg): 17.6 mL/min/kg
% F (absolute IP bioavailability) ([1]; male, Sprague-Dawley, rat): 84%
Vss ([1]; male, Sprague-Dawley, rat): 0.73 L/kg
AUC0-t [1, 5]: 1657 ng·h/mL
AUC0-∞ [1, 5]: 1666 ng·h/mL
MRT [1, 5]: 1.02 h
Tlast [1, 5]: 10.0 h
Tmax [1, 5]: 0.25 h
AUC0-t [1, 6]: 985 ng·h/mL
AUC0-∞ [1, 6]: 993 ng·h/mL
C0 [1, 6]: 1856 ng/mL
MRT [1, 6]: 0.72 h
Tlast [1, 6]: 7.00 h
Vd [1, 6]: 1.78 L/kg
AUC0-t [1, 7]: 808 ng·h/mL
AUC0-∞ [1, 7]: 814 ng·h/mL
Tlast [1, 7]: 10.0 h
bioavailability (in vivo [2]; Sprague-Dawley, F (absolute oral bioavailability)): 41%
MRT (in vivo [2]; Sprague-Dawley, po, 2 mg/kg, MRT): 1.81 h
half-life (in vivo [2]; Sprague-Dawley, po, 2 mg/kg): 1.57 h
Tmax (in vivo [2]; Sprague-Dawley, po, 2 mg/kg): 0.5 h
concentration at 0.25 h (in vivo [3]; [8]): 723 ng/mL
concentration at 0.5 h (in vivo [3]; [8]): 501 ng/mL
concentration at 1 h (in vivo [3]; [8]): 397 ng/mL
concentration at 2 h (in vivo [3]; [8]): 203 ng/mL
concentration at 3 h (in vivo [3]; [8]): 265 ng/mL
concentration at 5 h (in vivo [3]; [8]): 67.7 ng/mL
concentration at 8 h (in vivo [3]; [8]): 44.4 ng/mL
concentration at 10 h (in vivo [3]; [8]): 19.8 ng/mL
Plasma concentration (in vivo [3]; Beagle, dog, po, 5 mg/kg, 0.5 h): 2776 ng/mL
Plasma concentration (in vivo [3]; Beagle, dog, po, 5 mg/kg, 1 h): 2706 ng/mL
Plasma concentration (in vivo [3]; Beagle, dog, po, 5 mg/kg, 2 h): 2055 ng/mL
Plasma concentration (in vivo [3]; Beagle, dog, po, 5 mg/kg, 3 h): 2510 ng/mL
Plasma concentration (in vivo [3]; Beagle, dog, po, 5 mg/kg, 5 h): 429 ng/mL
concentration at 0.25 h (in vivo [3]; [9]): 1100 ng/mL
concentration at 0.5 h (in vivo [3]; [9]): 1880 ng/mL
concentration at 1 h (in vivo [3]; [9]): 1890 ng/mL
concentration at 2 h (in vivo [3]; [9]): 1520 ng/mL
concentration at 3 h (in vivo [3]; [9]): 1960 ng/mL
concentration at 5 h (in vivo [3]; [9]): 414 ng/mL
concentration at 8 h (in vivo [3]; [9]): 150 ng/mL
concentration at 10 h (in vivo [3]; [9]): 128 ng/mL
concentration at 24 h (in vivo [3]; [9]): 16.9 ng/mL
concentration at 0.5 h (in vivo [3]; [10]): 1870 ng/mL
concentration at 1 h (in vivo [3]; [10]): 1660 ng/mL
concentration at 2 h (in vivo [3]; [10]): 1480 ng/mL
concentration at 3 h (in vivo [3]; [10]): 1810 ng/mL
concentration at 5 h (in vivo [3]; [10]): 442 ng/mL
Dog Cl (in vivo [3]; beagle): 3.9 mL/min/kg
bioavailability (in vivo [3]; beagle, dog, Absolute oral bioavailability): 50.6%
clearance (in vivo [3]; beagle, dog, Dog Cl (ml/min/kg)): 3.92 mL/min/kg
bioavailability (in vivo [3]; beagle, dog, Dog F % (absolute oral bioavailability)): 43.4%
AUC0-t (in vivo [3]; beagle, dog, iv, 0.5 mg/kg): 1330 ng·h/mL
AUC(0-inf) (in vivo [3]; beagle, dog, iv, 0.5 mg/kg): 1350 ng·h/mL
Cmax (in vivo [3]; beagle, dog, iv, 0.5 mg/kg): 2040 ng/mL
Vd (in vivo [3]; beagle, dog, iv, 0.5 mg/kg): 0.00072 L
Plasma concentration (in vivo [3]; beagle, dog, iv, 0.5 mg/kg, 0.25 h): 843 ng/mL
Plasma concentration (in vivo [3]; beagle, dog, iv, 0.5 mg/kg, 0.5 h): 548 ng/mL
Plasma concentration (in vivo [3]; beagle, dog, iv, 0.5 mg/kg, 1 h): 405 ng/mL
clearance (in vivo [3]; beagle, dog, iv, 0.5 mg/kg, Cl): 0.0065 mL/min
half-life (in vivo [3]; beagle, dog, iv, 0.5 mg/kg, Half life): 2.15 h
concentration at 0.25 h (in vivo [3]; [11]): 851 ng/mL
concentration at 0.5 h (in vivo [3]; [11]): 641 ng/mL
concentration at 1 h (in vivo [3]; [11]): 508 ng/mL
concentration at 2 h (in vivo [3]; [11]): 297 ng/mL
concentration at 3 h (in vivo [3]; [11]): 421 ng/mL
concentration at 5 h (in vivo [3]; [11]): 109 ng/mL
concentration at 8 h (in vivo [3]; [11]): 44.1 ng/mL
concentration at 10 h (in vivo [3]; [11]): 27.6 ng/mL
concentration at 0.25 h (in vivo [3]; [12]): 987 ng/mL
concentration at 0.5 h (in vivo [3]; [12]): 874 ng/mL
concentration at 1 h (in vivo [3]; [12]): 721 ng/mL
concentration at 24 h (in vivo [3]; [12]): 15.8 ng/mL
AUC0-t (in vivo [3]; beagle, dog, po, 3 mg/kg): 2570 ng·h/mL
AUC(0-inf) (in vivo [3]; beagle, dog, po, 3 mg/kg): 2690 ng·h/mL
Cmax (in vivo [3]; beagle, dog, po, 3 mg/kg): 685 ng/mL
Tmax (in vivo [3]; beagle, dog, po, 3 mg/kg): 4 h
half-life (in vivo [3]; beagle, dog, po, 3 mg/kg, Half life): 2.11 h
Vdss (in vivo [3]; beagle, dog, po, 5 mg/kg): 0.83 L/kg
peak concentration (in vivo [3]; beagle, dog, po, 5 mg/kg): 2068 ng/mL
t1/2 (hr), oral half-life (in vivo [3]; beagle, dog, po, 5 mg/kg): 3.41 h
time of peak concentration post dose (in vivo [3]; beagle, dog, po, 5 mg/kg): 1.5 h
concentration at 0.5 h (in vivo [3]; [13]): 999 ng/mL
concentration at 1 h (in vivo [3]; [13]): 1310 ng/mL
concentration at 2 h (in vivo [3]; [13]): 1020 ng/mL
concentration at 3 h (in vivo [3]; [13]): 1560 ng/mL
concentration at 5 h (in vivo [3]; [13]): 370 ng/mL
concentration at 8 h (in vivo [3]; [13]): 107 ng/mL
concentration at 10 h (in vivo [3]; [13]): 158 ng/mL
half-life (in vivo [3]; beagle, dog, po, 5 mg/kg, t1/2 (hr), oral half-life): ~3.4 h
SMILES: O=C(O)c1ccc(-c2ccc(/C=C3\SC(=S)N(Cc4ccccc4)C3=O)o2)cc1 [LA1 choline salt]

Rat F % ([1]; po, 2 mg/kg): Exposure too low
Vss ([1]; male, Sprague Dawley, rat): 4.19 L/kg
MRT [1, 4]: 3.44 h
Vss ([1]; male, Sprague-Dawley, rat): 4.19 L/kg
AUC0-t [1, 5]: 1481 ng·h/mL
AUC0-∞ [1, 5]: 1499 ng·h/mL
MRT [1, 5]: 3.44 h
Tlast [1, 5]: 20.5 h
C0 [1, 6]: 1317 ng/mL
MRT [1, 6]: 3.38 h
Tlast [1, 6]: 20.0 h
MRT (hr) ([1]; rat, po, 2 mg/kg): Exposure too low
clearance (in vivo [2]; Sprague Dawley, iv, 1 mg/kg, Rat Cl (ml/min/kg)): 19.7 mL/min/kg
bioavailability (in vivo [2]; Sprague-Dawley, % F (absolute IP bioavailability)): 82%
clearance (in vivo [2]; Sprague-Dawley, Rat Cl (ml/min/kg)): 20 mL/min/kg
bioavailability (in vivo [2]; Sprague-Dawley, ip, 2 mg/kg, % F (absolute IP bioavailability)): 81.6%
AUC (in vivo [2]; Sprague-Dawley, ip, 2 mg/kg, AUC in mM*hr): 3.5 µM·h
Tmax (in vivo [2]; Sprague-Dawley, ip, 2 mg/kg): 0.25 h
AUC0-t (in vivo [2]; Sprague-Dawley, iv, 1 mg/kg, AUC0-t): 903 ng·h/mL
AUC(0-inf) (in vivo [2]; Sprague-Dawley, iv, 1 mg/kg, AUC0-∞): 918 ng·h/mL
clearance (in vivo [2]; Sprague-Dawley, iv, 1 mg/kg, CL): 19.7 mL/min/kg
Cmax (in vivo [2]; Sprague-Dawley, iv, 1 mg/kg, Cmax): 952 ng/mL
clearance (in vivo [2]; Sprague-Dawley, iv, 1 mg/kg, Rat Cl (ml/min/kg)): 19.7 mL/min/kg
Vd (in vivo [2]; Sprague-Dawley, iv, 1 mg/kg, Vd): 2.39 L/kg
half-life (in vivo [2]; Sprague-Dawley, iv, 1 mg/kg): 1.16 h
SMILES: O=C(O)c1ccc(-c2ccc(/C=C3\SC(=S)N(Cc4ccccc4)C3=O)o2)cc1 [LA1, (Z)-4-(5-((3-benzyl-4-oxo-2-thioxothiazolidin-5-ylidene)methyl)furan-2-yl)benzoic acid]
